# According to patent US7057171B2, “Patch-clamping and its use in analyzing subcellular features” (priority 2001, dated 2006):
# System: Cl^− channel
# Assay: Whole-cell Cl^− current recording (patch-clamp) in rat cardiac myocytes
# Format: cell-based
# Settings: rat left ventricle cardiac myocytes, currents measured at plateau level, 30 μM nifedipine in bath
# Text: FIG. 4: Channels with 3 different current types were found. (A) A small-conductance inwardly rectifying channel (ClSIR). (B) A large-conductance inwardly rectifying channel (ClLIR). (C) An outwardly rectifying channel (ClOR). For each type of channel, a family of currents at different voltages (on the left side of the panels), current-voltage characteristics (on the top right side of the panels) and channel densities at different surface positions (on the bottom right side of the panels) are shown. The mean reversal potential was −31.2±2.4 mV (n=5) for (A)−31.8±3.4 mV (n=5) for (B) and −33.5±3.0 mV (n=4) for (C). (D) Calculated whole-cell current extrapolated from single-channel currents. (E) Current-voltage characteristics of experimental whole-cell currents obtained from 22 cells (black circles). […] Currents were measured at plateau level.
# Left ventricle cells from the rat myocardium were isolated as previously described (Harding et al, J. Mol. Cell Cardiol. 20:635–647, 1988). Cells were allowed to attach to polystyrene cell culture dishes filled with bath solutions.
# the bath solution contained (in mM) K-glutamate 120, KCl 25, MgCl2 2, CaCl2 1, EGTA 2, glucose 10 and HEPES 10, adjusted to pH 7.4 with CsOH. The pipette backfill solution contained N-methyl-D-glucamine-Cl (NMDG-Cl) 108, HEPES 5, glucose 5.5 and EGTA 1, adjusted to pH 7.4 with TEA-OH. […]
SMILES,"Block of experimental whole-cell Cl^− currents (1 mM, n=5)","Block of experimental whole-cell Cl^− currents (300 μM, n=12)"
[Cd+2] [Cd^2+],almost completely blocked,–
"CC(=O)Nc1ccc(C=Cc2ccc(N=C=S)cc2S(=O)(=O)O)c(S(=O)(=O)O)c1 [SITS, stilbene disulfonate]",–,partially blocked
